From patent publication US20080051429A1, “USE OF 4-AMINO-PIPERIDINES FOR TREATING SLEEP DISORDERS” (priority 2006, published 2008)
Read-outs that look alike come from different tables or passages of the source.

Biological target: T1, 5-HT2A receptor (Homo sapiens, UniProt P28223)
T1 construct: expressed in transfected cells; host or cells: NIH3T3 cells, pSI expression vector
Assay: R-SAT functional receptor assay
Format: cell-based
Conditions: for EC50: agonist

T1 sequence (P28223 whole entry): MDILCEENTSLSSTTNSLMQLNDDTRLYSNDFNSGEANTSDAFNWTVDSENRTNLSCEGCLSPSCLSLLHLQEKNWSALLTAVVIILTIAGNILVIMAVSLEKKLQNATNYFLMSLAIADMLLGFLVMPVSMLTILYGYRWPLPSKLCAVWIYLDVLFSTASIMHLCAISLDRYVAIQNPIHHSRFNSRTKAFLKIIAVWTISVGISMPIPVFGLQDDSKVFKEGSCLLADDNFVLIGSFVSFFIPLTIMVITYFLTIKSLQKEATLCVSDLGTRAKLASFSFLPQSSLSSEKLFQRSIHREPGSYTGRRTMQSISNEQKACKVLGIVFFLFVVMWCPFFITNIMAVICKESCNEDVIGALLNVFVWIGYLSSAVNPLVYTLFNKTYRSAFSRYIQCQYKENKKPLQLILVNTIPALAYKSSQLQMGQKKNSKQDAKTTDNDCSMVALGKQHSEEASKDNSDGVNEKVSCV

SMILES	Emax (120 h, read-out: Percent Efficacy, compared to ritanserin) [%]	IC50 (Table 3, read-out: pIC50 (converted)) [nM]	EC50 (read-out: pEC50/pIC50 (converted)) [nM]	IC50 (inverse agonist, read-out: pEC50/pIC50 (converted)) [nM]	EC50 (read-out: pEC50 or pIC50 (converted)) [nM]	5HT2A % inhibition (compared to ritanserin) [%]	efficacy in brackets (inverse) [%]
COc1ccc(CC(=O)N(Cc2ccc(C)cc2)C2CCN(C)CC2)cc1 [Example 50ELH27, 2-(4-Methoxyphenyl)-N-(4-methylbenzyl)-N-(1-methylpiperidin-4-yl)acetamide]	108	2	> 3160	1.58			
CC(C)COc1ccc(CN2C(=O)OC3(CCN(C)CC3)C2Cc2ccc(F)cc2)cc1.Cl (racemic) [Example 69NLS75, 4-(4-Fluorobenzyl)-3-(4-isobutoxybenzyl)-8-methyl-1-oxa-3,8-diazaspiro[4.5]decan-2-one, hydrochloride]					> 3160	94	94
